# Laboratory results taken from the supplement of paper PMC10307832.
# Key:
# Test in all cases: relative viability (nuclei count vs DMSO), 5 days (fraction); higher = more cells survive
# Tipifarnib + Pemetrexed = compound: Cn1cncc1[C@@](N)(c1ccc(Cl)cc1)c1ccc2c(c1)c(-c1cccc(Cl)c1)cc(=O)n2C [Tipifarnib] + Nc1nc2[nH]cc(CCc3ccc(C(=O)N[C@@H](CCC(=O)O)C(=O)O)cc3)c2c(=O)[nH]1 [Pemetrexed] (partner 0.2 µM)
# Outline: (§1)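 One day after seeding in 1536-well plates, lung cancer cell lines were dosed by pin tool. Dosing was either single-drug or a fixed anchor-drug dose plus five library-drug doses (not always all listed) in √10 steps. After 5 days, nuclei were stained in one fix-and-stain step and counted on 4× images, and relative viability is the nuclei count of treated wells over that of vehicle wells, given as the median of duplicate plates.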
# Tipifarnib + Vorinostat = compound: Cn1cncc1[C@@](N)(c1ccc(Cl)cc1)c1ccc2c(c1)c(-c1cccc(Cl)c1)cc(=O)n2C [Tipifarnib] + O=C(CCCCCCC(=O)Nc1ccccc1)NO [Vorinostat] (partner 1 µM)
# Outline: as §1
# Tipifarnib + Navitoclax = compound: Cn1cncc1[C@@](N)(c1ccc(Cl)cc1)c1ccc2c(c1)c(-c1cccc(Cl)c1)cc(=O)n2C [Tipifarnib] + CC1(C)CCC(c2ccc(Cl)cc2)=C(CN2CCN(c3ccc(C(=O)NS(=O)(=O)c4ccc(N[C@H](CCN5CCOCC5)CSc5ccccc5)c(S(=O)(=O)C(F)(F)F)c4)cc3)CC2)C1 [Navitoclax] (partner 0.5 µM)
# Outline: as §1
# Tipifarnib + Linsitinib = compound: Cn1cncc1[C@@](N)(c1ccc(Cl)cc1)c1ccc2c(c1)c(-c1cccc(Cl)c1)cc(=O)n2C [Tipifarnib] + C[C@]1(O)C[C@@H](c2nc(-c3ccc4ccc(-c5ccccc5)nc4c3)c3c(N)nccn32)C1 [Linsitinib] (partner 1 µM)
# Outline: as §1
cell line,measurement,setting,value
PC-3 [JPC-3],relative viability,Tipifarnib + Pemetrexed; first compound 0.01 µM,1
same,relative viability,Tipifarnib + Pemetrexed; first compound 0.03162 µM,1.11
same,relative viability,Tipifarnib + Pemetrexed; first compound 0.1 µM,0.592
same,relative viability,Tipifarnib + Pemetrexed; first compound 0.3162 µM,0.448
same,relative viability,Tipifarnib + Pemetrexed; first compound 1 µM,0.42
same,relative viability,Tipifarnib + Vorinostat; first compound 0.01 µM,0.823
same,relative viability,Tipifarnib + Vorinostat; first compound 0.03162 µM,0.674
same,relative viability,Tipifarnib + Vorinostat; first compound 0.1 µM,0.529
same,relative viability,Tipifarnib + Vorinostat; first compound 0.3162 µM,0.426
same,relative viability,Tipifarnib + Vorinostat; first compound 1 µM,0.386
same,relative viability,Tipifarnib + Navitoclax; first compound 0.01 µM,0.814
same,relative viability,Tipifarnib + Navitoclax; first compound 0.03162 µM,0.648
same,relative viability,Tipifarnib + Navitoclax; first compound 0.1 µM,0.749
same,relative viability,Tipifarnib + Navitoclax; first compound 0.3162 µM,0.532
same,relative viability,Tipifarnib + Navitoclax; first compound 1 µM,0.416
same,relative viability,Tipifarnib + Linsitinib; first compound 0.01 µM,0.956
same,relative viability,Tipifarnib + Linsitinib; first compound 0.03162 µM,0.899
same,relative viability,Tipifarnib + Linsitinib; first compound 0.1 µM,0.872
same,relative viability,Tipifarnib + Linsitinib; first compound 0.3162 µM,0.769
same,relative viability,Tipifarnib + Linsitinib; first compound 1 µM,0.736
PC-14,relative viability,Tipifarnib + Pemetrexed; first compound 0.01 µM,0.123
same,relative viability,Tipifarnib + Pemetrexed; first compound 0.03162 µM,0.154
same,relative viability,Tipifarnib + Pemetrexed; first compound 0.1 µM,0.157
same,relative viability,Tipifarnib + Pemetrexed; first compound 0.3162 µM,0.146
same,relative viability,Tipifarnib + Pemetrexed; first compound 1 µM,0.149
same,relative viability,Tipifarnib + Vorinostat; first compound 0.01 µM,0.698
same,relative viability,Tipifarnib + Vorinostat; first compound 0.03162 µM,0.324
same,relative viability,Tipifarnib + Vorinostat; first compound 0.1 µM,0.455
same,relative viability,Tipifarnib + Vorinostat; first compound 0.3162 µM,0.236
same,relative viability,Tipifarnib + Vorinostat; first compound 1 µM,0.157
same,relative viability,Tipifarnib + Navitoclax; first compound 0.01 µM,1.05
same,relative viability,Tipifarnib + Navitoclax; first compound 0.03162 µM,0.847
same,relative viability,Tipifarnib + Navitoclax; first compound 0.1 µM,0.658
same,relative viability,Tipifarnib + Navitoclax; first compound 0.3162 µM,0.482
same,relative viability,Tipifarnib + Navitoclax; first compound 1 µM,0.51
same,relative viability,Tipifarnib + Linsitinib; first compound 0.01 µM,0.98
same,relative viability,Tipifarnib + Linsitinib; first compound 0.03162 µM,0.965
same,relative viability,Tipifarnib + Linsitinib; first compound 0.1 µM,0.713
same,relative viability,Tipifarnib + Linsitinib; first compound 0.3162 µM,0.432
same,relative viability,Tipifarnib + Linsitinib; first compound 1 µM,0.437
RERF-LC-KJ,relative viability,Tipifarnib + Pemetrexed; first compound 0.01 µM,0.474
same,relative viability,Tipifarnib + Pemetrexed; first compound 0.03162 µM,0.6
same,relative viability,Tipifarnib + Pemetrexed; first compound 0.1 µM,0.46
same,relative viability,Tipifarnib + Pemetrexed; first compound 0.3162 µM,0.427
same,relative viability,Tipifarnib + Pemetrexed; first compound 1 µM,0.362
same,relative viability,Tipifarnib + Vorinostat; first compound 0.01 µM,0.652
same,relative viability,Tipifarnib + Vorinostat; first compound 0.03162 µM,0.652
same,relative viability,Tipifarnib + Vorinostat; first compound 0.1 µM,0.544
same,relative viability,Tipifarnib + Vorinostat; first compound 0.3162 µM,0.324
same,relative viability,Tipifarnib + Vorinostat; first compound 1 µM,0.224
same,relative viability,Tipifarnib + Navitoclax; first compound 0.01 µM,1.14
same,relative viability,Tipifarnib + Navitoclax; first compound 0.03162 µM,0.931
same,relative viability,Tipifarnib + Navitoclax; first compound 0.1 µM,0.61
same,relative viability,Tipifarnib + Navitoclax; first compound 0.3162 µM,0.467
same,relative viability,Tipifarnib + Navitoclax; first compound 1 µM,0.46
same,relative viability,Tipifarnib + Linsitinib; first compound 0.01 µM,0.918
same,relative viability,Tipifarnib + Linsitinib; first compound 0.03162 µM,0.909
same,relative viability,Tipifarnib + Linsitinib; first compound 0.1 µM,0.874
same,relative viability,Tipifarnib + Linsitinib; first compound 0.3162 µM,0.629
same,relative viability,Tipifarnib + Linsitinib; first compound 1 µM,0.651
SK-LU-1,relative viability,Tipifarnib + Pemetrexed; first compound 0.01 µM,0.961
same,relative viability,Tipifarnib + Pemetrexed; first compound 0.03162 µM,0.931
same,relative viability,Tipifarnib + Pemetrexed; first compound 0.1 µM,0.723
same,relative viability,Tipifarnib + Pemetrexed; first compound 0.3162 µM,0.63
same,relative viability,Tipifarnib + Pemetrexed; first compound 1 µM,0.5
same,relative viability,Tipifarnib + Vorinostat; first compound 0.01 µM,0.771
same,relative viability,Tipifarnib + Vorinostat; first compound 0.03162 µM,0.635
same,relative viability,Tipifarnib + Vorinostat; first compound 0.1 µM,0.492
same,relative viability,Tipifarnib + Vorinostat; first compound 0.3162 µM,0.417
same,relative viability,Tipifarnib + Vorinostat; first compound 1 µM,0.471
same,relative viability,Tipifarnib + Navitoclax; first compound 0.01 µM,0.779
same,relative viability,Tipifarnib + Navitoclax; first compound 0.03162 µM,0.488
same,relative viability,Tipifarnib + Navitoclax; first compound 0.1 µM,0.435
same,relative viability,Tipifarnib + Navitoclax; first compound 0.3162 µM,0.25
same,relative viability,Tipifarnib + Navitoclax; first compound 1 µM,0.405
same,relative viability,Tipifarnib + Linsitinib; first compound 0.01 µM,0.986
same,relative viability,Tipifarnib + Linsitinib; first compound 0.03162 µM,0.728
same,relative viability,Tipifarnib + Linsitinib; first compound 0.1 µM,0.642
same,relative viability,Tipifarnib + Linsitinib; first compound 0.3162 µM,0.631
same,relative viability,Tipifarnib + Linsitinib; first compound 1 µM,0.67
SK-MES-1,relative viability,Tipifarnib + Pemetrexed; first compound 0.01 µM,0.975
same,relative viability,Tipifarnib + Pemetrexed; first compound 0.03162 µM,0.919
same,relative viability,Tipifarnib + Pemetrexed; first compound 0.1 µM,0.924
same,relative viability,Tipifarnib + Pemetrexed; first compound 0.3162 µM,0.773
same,relative viability,Tipifarnib + Pemetrexed; first compound 1 µM,0.648
same,relative viability,Tipifarnib + Vorinostat; first compound 0.01 µM,1.14
same,relative viability,Tipifarnib + Vorinostat; first compound 0.03162 µM,0.99
same,relative viability,Tipifarnib + Vorinostat; first compound 0.1 µM,1.05
same,relative viability,Tipifarnib + Vorinostat; first compound 0.3162 µM,0.842
same,relative viability,Tipifarnib + Vorinostat; first compound 1 µM,0.57
same,relative viability,Tipifarnib + Navitoclax; first compound 0.01 µM,1.3
same,relative viability,Tipifarnib + Navitoclax; first compound 0.03162 µM,1.11
same,relative viability,Tipifarnib + Navitoclax; first compound 0.1 µM,0.866
same,relative viability,Tipifarnib + Navitoclax; first compound 0.3162 µM,0.785
same,relative viability,Tipifarnib + Navitoclax; first compound 1 µM,0.655
same,relative viability,Tipifarnib + Linsitinib; first compound 0.01 µM,1.08
same,relative viability,Tipifarnib + Linsitinib; first compound 0.03162 µM,0.917
same,relative viability,Tipifarnib + Linsitinib; first compound 0.1 µM,0.985
same,relative viability,Tipifarnib + Linsitinib; first compound 0.3162 µM,0.792
same,relative viability,Tipifarnib + Linsitinib; first compound 1 µM,0.809
SW 1573,relative viability,Tipifarnib + Pemetrexed; first compound 0.01 µM,0.781
same,relative viability,Tipifarnib + Pemetrexed; first compound 0.03162 µM,0.719
same,relative viability,Tipifarnib + Pemetrexed; first compound 0.1 µM,0.458
same,relative viability,Tipifarnib + Pemetrexed; first compound 0.3162 µM,0.383
same,relative viability,Tipifarnib + Pemetrexed; first compound 1 µM,0.245
same,relative viability,Tipifarnib + Vorinostat; first compound 0.01 µM,0.701
same,relative viability,Tipifarnib + Vorinostat; first compound 0.03162 µM,0.434
same,relative viability,Tipifarnib + Vorinostat; first compound 0.1 µM,0.308
same,relative viability,Tipifarnib + Vorinostat; first compound 0.3162 µM,0.312
same,relative viability,Tipifarnib + Vorinostat; first compound 1 µM,0.179
same,relative viability,Tipifarnib + Navitoclax; first compound 0.01 µM,1.05
same,relative viability,Tipifarnib + Navitoclax; first compound 0.03162 µM,0.678
same,relative viability,Tipifarnib + Navitoclax; first compound 0.1 µM,0.49
same,relative viability,Tipifarnib + Navitoclax; first compound 0.3162 µM,0.407
same,relative viability,Tipifarnib + Navitoclax; first compound 1 µM,0.331
same,relative viability,Tipifarnib + Linsitinib; first compound 0.01 µM,0.7
same,relative viability,Tipifarnib + Linsitinib; first compound 0.03162 µM,0.709
same,relative viability,Tipifarnib + Linsitinib; first compound 0.1 µM,0.518
same,relative viability,Tipifarnib + Linsitinib; first compound 0.3162 µM,0.387
same,relative viability,Tipifarnib + Linsitinib; first compound 1 µM,0.365
UMC-11,relative viability,Tipifarnib + Pemetrexed; first compound 0.01 µM,0.578
same,relative viability,Tipifarnib + Pemetrexed; first compound 0.03162 µM,0.65
same,relative viability,Tipifarnib + Pemetrexed; first compound 0.1 µM,0.499
same,relative viability,Tipifarnib + Pemetrexed; first compound 0.3162 µM,0.46
same,relative viability,Tipifarnib + Pemetrexed; first compound 1 µM,0.424
same,relative viability,Tipifarnib + Vorinostat; first compound 0.01 µM,0.314
same,relative viability,Tipifarnib + Vorinostat; first compound 0.03162 µM,0.348
same,relative viability,Tipifarnib + Vorinostat; first compound 0.1 µM,0.338
same,relative viability,Tipifarnib + Vorinostat; first compound 0.3162 µM,0.291
same,relative viability,Tipifarnib + Vorinostat; first compound 1 µM,0.307
same,relative viability,Tipifarnib + Navitoclax; first compound 0.01 µM,0.263
same,relative viability,Tipifarnib + Navitoclax; first compound 0.03162 µM,0.211
same,relative viability,Tipifarnib + Navitoclax; first compound 0.1 µM,0.235
same,relative viability,Tipifarnib + Navitoclax; first compound 0.3162 µM,0.191
same,relative viability,Tipifarnib + Navitoclax; first compound 1 µM,0.194
same,relative viability,Tipifarnib + Linsitinib; first compound 0.01 µM,0.86
same,relative viability,Tipifarnib + Linsitinib; first compound 0.03162 µM,0.632
same,relative viability,Tipifarnib + Linsitinib; first compound 0.1 µM,0.563
same,relative viability,Tipifarnib + Linsitinib; first compound 0.3162 µM,0.523
same,relative viability,Tipifarnib + Linsitinib; first compound 1 µM,0.577
